Like-named read-outs stand apart in the source and are kept apart here.
How the values were obtained:
[1] = biological target: T1, rat intestinal α-glucosidase (Rattus norvegicus, UniProt P23739); experiment: α-Glucosidase inhibition assay; assay type: biochemical
T1 construct: rat intestinal α-glucosidase solution; from tissue; host or cells: rat intestine
Experimental: The effect of the isolated compounds on the activity of the α-glucosidase enzyme was evaluated by the method of Olaokun et al.. Firstly, a solution of 2.5 mg of compound in 1 mL of 50% dimethyl sulfoxide was made. A compound solution (100 μL) and sucrose (200 μL of a 56 mM solution) in 0.1 M PO4 buffer (pH 7) were incubated at 37 °C for 5 min. Then 200 μL of rat intestinal α-glucosidase solution was added with vigorous shaking before incubation for 20 min. Thereafter, 750 μL of 2 M Tris-HCl buffer (pH 6.9) was added to the mixture. […] The quantity of glucose released was estimated using the glucose oxidase method, with absorbance recorded at 540 nm. […] (1) %Inhibition=100×∆AControl−∆ASample/∆AControl∆AControl=ATest−ABlank∆ASample=ATest−ABlank

H-4-11-E rat liver cells = experiment: Glucose utilization in H-4-11-E liver cells; assay type: cell-based; conditions: 250 µg/mL, 3 h, percentage of untreated control cells ± SEM
Experimental: (§1) The potential of compounds to stimulate cells to utilize glucose was estimated using the method adopted by Olaokun et al.. […] The C2C12 cells were incubated for 4 days, while the H-4-11-E cells were incubated for 2 days at 37 °C in a 5% CO2 incubator. Thereafter, the cells were examined and utilized for the glucose uptake assay. […] The treated cells were incubated for 1 h (C2C12) and 3 h (H-4-11-E). The positive control was insulin (Sigma) (1 μM) for C2C12 cells and metformin (Sigma) (1 µM) for H-4-11-E cells. Thereafter, the amount of glucose in the medium was evaluated using the glucose oxidase method, with absorbance recorded at 540 nm. The percentage of glucose utilized was calculated as the percentage change in absorbance in comparison to the untreated cells using Equation (2). (2) %Glucose utilized=100×∆AControl (untreated cells)−∆ASample (treated cells)/∆AControl (untreated cells)

C2C12 muscle cells = experiment: Glucose utilization in C2C12 muscle cells; assay type: cell-based; conditions: 250 µg/mL, 1 h, percentage of untreated control cells ± SEM
Experimental: as §1

[2] = rat intestinal α-glucosidase, sucrose substrate, mean ± SEM, read-out: IC50, α-glucosidase inhibitory activity (converted)

T1 sequence (P23739 whole entry): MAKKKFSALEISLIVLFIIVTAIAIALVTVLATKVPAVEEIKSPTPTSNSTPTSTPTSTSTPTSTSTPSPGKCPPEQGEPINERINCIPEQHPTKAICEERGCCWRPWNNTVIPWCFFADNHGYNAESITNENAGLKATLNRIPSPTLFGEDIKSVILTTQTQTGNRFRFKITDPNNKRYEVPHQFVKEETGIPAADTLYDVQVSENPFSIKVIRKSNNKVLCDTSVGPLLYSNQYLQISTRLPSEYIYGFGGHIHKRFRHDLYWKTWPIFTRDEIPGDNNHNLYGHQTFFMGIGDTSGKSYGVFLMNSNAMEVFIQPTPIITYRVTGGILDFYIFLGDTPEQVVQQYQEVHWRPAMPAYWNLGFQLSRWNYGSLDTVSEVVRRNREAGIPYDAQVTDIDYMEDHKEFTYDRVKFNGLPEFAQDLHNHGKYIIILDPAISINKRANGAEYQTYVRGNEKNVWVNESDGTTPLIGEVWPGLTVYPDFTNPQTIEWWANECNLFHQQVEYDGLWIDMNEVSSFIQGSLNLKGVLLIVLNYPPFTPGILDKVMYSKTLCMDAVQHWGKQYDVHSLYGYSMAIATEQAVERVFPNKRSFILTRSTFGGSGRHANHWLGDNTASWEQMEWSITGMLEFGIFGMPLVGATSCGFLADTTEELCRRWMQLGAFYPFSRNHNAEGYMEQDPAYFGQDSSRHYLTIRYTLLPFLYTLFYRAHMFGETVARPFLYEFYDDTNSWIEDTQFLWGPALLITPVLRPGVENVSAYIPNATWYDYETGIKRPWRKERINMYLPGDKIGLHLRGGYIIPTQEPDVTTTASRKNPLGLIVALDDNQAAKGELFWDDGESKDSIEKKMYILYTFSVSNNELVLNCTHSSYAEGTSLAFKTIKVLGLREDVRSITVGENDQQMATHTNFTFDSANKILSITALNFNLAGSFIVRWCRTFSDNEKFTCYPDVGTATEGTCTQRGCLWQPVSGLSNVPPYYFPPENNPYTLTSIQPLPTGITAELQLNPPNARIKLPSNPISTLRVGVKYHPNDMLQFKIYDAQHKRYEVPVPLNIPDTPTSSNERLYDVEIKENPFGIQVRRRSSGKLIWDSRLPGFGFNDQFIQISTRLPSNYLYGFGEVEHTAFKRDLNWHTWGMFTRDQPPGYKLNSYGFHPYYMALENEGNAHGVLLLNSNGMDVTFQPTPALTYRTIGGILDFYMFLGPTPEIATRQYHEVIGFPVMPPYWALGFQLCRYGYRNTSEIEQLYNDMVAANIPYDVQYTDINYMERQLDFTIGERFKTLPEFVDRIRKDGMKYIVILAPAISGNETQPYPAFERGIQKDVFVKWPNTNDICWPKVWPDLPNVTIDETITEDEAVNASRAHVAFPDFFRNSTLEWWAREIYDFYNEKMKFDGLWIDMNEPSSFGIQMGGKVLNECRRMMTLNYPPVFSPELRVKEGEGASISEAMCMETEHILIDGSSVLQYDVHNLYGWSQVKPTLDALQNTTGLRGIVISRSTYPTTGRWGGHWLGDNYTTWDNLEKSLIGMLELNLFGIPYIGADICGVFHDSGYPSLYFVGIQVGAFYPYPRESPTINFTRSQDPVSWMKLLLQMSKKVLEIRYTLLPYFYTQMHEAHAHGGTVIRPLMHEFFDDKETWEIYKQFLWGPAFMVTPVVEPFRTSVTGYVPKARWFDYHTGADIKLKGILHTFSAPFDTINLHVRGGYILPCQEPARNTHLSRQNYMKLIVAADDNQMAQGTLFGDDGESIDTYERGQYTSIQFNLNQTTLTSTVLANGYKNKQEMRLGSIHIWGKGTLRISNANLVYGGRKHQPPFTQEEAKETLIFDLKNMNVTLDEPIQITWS

**Q.** Which results are given for `Oc1cc(O)c2c(c1)O[C@H](c1ccc(O)c(O)c1)[C@H](O)C2` [Epicatechin, epicatechin]?
**A.** IC50 [1, 2]: 19.7 µM; Glucose utilization in H-4-11-E liver cells (H-4-11-E rat liver cells): 32.4 ± 1.5%

**Q.** Which IC50 [1, 2] does the source give for `CC[C@H](/C=C/[C@@H](C)[C@H]1CC[C@H]2[C@@H]3CC=C4C[C@@H](O)CC[C@]4(C)[C@H]3CC[C@]12C)C(C)C` [Stigmasterol, stigmasterol] here?
**A.** The IC50 was 280 µM.

**Q.** Which IC50 [1, 2] does the source give for `Oc1ccc(C2Oc3cc(O)cc(O)c3CC2O)cc1` (centres unmarked) [Epiafzelechin, epiafzelechin] here?
**A.** The IC50 was 27.9 µM.

**Q.** And the “Glucose utilization in C2C12 muscle cells” value (C2C12 muscle cells)?
**A.** Its value is 33.35 ± 1.8%.

**Q.** And the “Glucose utilization in H-4-11-E liver cells” value (H-4-11-E rat liver cells)?
**A.** Its value is 46.7 ± 1.2%.

**Q.** Which IC50 [1] does the source give for `C=C(C)[C@@H]1CC[C@]2(C)CC[C@]3(C)[C@H](CC[C@@H]4[C@@]5(C)CC[C@H](O)C(C)(C)[C@@H]5CC[C@]43C)[C@@H]12` [Lupeol, lupeol] here?
**A.** Its IC50 is over 2340 µM.

**Q.** With `CC(=O)OC1CCC2(C)C(CCC3(C)C2CC=C2C4C(C)C(C)CCC4(C)CCC23C)C1(C)C` (stereo not drawn) [α-Amyrin acetate, α-amyrin acetate] as the compound, how does the IC50 [1, 2] read?
**A.** The IC50 was 716 µM.

— PMC10708125, “Antidiabetic Activity, Molecular Docking, and ADMET Properties of Compounds Isolated from Bioactive Ethyl Acetate Fraction of Ficus lutea Leaf Extract” (Molecules, 2023)
